# Laboratory results as given in US20180156826A1, “COMPOSITIONS AND METHODS FOR DIAGNOSIS OF AUTISM SPECTRUM DISORDER” (The Board of Regents of the University of Texas System, priority 2015, published 2018).
# Square brackets hold non-standard residues; d marks the D form. Peptide text beside a SMILES is read from it. ξ: configuration not given here. N(3,4-(MeO)2phenethyl)Gly = COc1ccc(CCNCC(=O)O)cc1OC; Gly(N-(CH2)3OMe) = COCCCNCC(=O)O; Gly(N-cHex) = O=C(O)CNC1CCCCC1; Nleu = CC(C)CNCC(=O)O; Nme = COCCNCC(=O)O; ξC = NC(CS)C(=O)O
# How the values were obtained:
# serum IgG1 = assay: Peptoid ELISA, IgG1 subclass detection; type: binding, human
# Experimental: (§1) Peptoid compounds were immobilized onto maleimide-activated 96-well plates (Pierce Biotechnology, Rockford, Ill.) by dissolving them to 0.03-0.05 mM in a 0.1 M sodium phosphate, 0.15 M sodium chloride, 10 mM EDTA solution adjusted to pH 7.2 and incubating with shaking for 3 hrs at RT. Plates were washed with PBST and blocked with a 5% goat serum (Thermo Scientific, Rockford, Ill.) in PBST solution for 1 hr at RT. Plates were washed again and incubated with target (serum) samples diluted in blocking buffer (1:1 PBST-1% BSA and SuperBlock) for 2 hrs at RT. After washing, plates were incubated with Goat anti-Human IgG-Fc-HRP conjugate (Bethyl Laboratories, Montgomery, Tex.) diluted 1:30,000 in PBST-1% BSA or mouse anti-human IgG1 (hinge)-HRP conjugate (SouthernBiotech, Birmingham, Ala.) diluted 1:1000 in PBST-1% BSA for 30 min at RT. After another wash, plates were incubated in TMB substrate for 16 min at RT and stopped with 2M H2SO4. Plates were read at 450 nm. All samples were run in duplicate, and every assay contained ASD and TD serum pool samples to serve as internal controls. Results for individual samples were assessed as ratios to the ASD serum pool so as to control for plate-to-plate variation.
# serum IgG = assay: Peptoid ELISA, total IgG detection with serum pools; type: binding, human; details: pooled serum of 10 TD males vs 10 ASD males
# Experimental: as §1
# Using the same two serum pools as used during screening, the “hit” peptoids were then tested by ELISA for their ability to bind IgG from the two pools. […]
structure (smiles),measurement,setting,value
"COCCCN(CC(=O)N(CCc1ccc(OC)c(OC)c1)CC(=O)N(CC(=O)N(CC(=O)N(CCCOC)CC(=O)N(CC(=O)N(CCOC)CC(=O)NC(CS)C(N)=O)C1CCCCC1)CC(C)C)C1CCCCC1)C(=O)CNCCc1ccc(OC)c(OC)c1 (stereo not shown) [ASD1] (H-[N(3,4-(MeO)2phenethyl)Gly][Gly(N-(CH2)3OMe)][N(3,4-(MeO)2phenethyl)Gly][Gly(N-cHex)][Nleu][Gly(N-(CH2)3OMe)][Gly(N-cHex)][Nme][ξC]-NH2)","ASD1 binding, ASD females","serum IgG1; ASD female serum samples, n=10",1.76±0.81
same,"ASD1 binding, TD females","serum IgG1; TD female serum samples, n=20",1.97±0.38
same,ASD1 binding of IgG1 from ASD males,"serum IgG1; individual ASD male serum samples, n=50, 1:100 dilution, ratio of sample absorbance to control serum pool, error SEM",1.33±0.31
same,ASD1 binding of IgG1 from TD males,"serum IgG1; individual TD male serum samples, n=43, 1:100 dilution, ratio of sample absorbance to control serum pool, error SEM",2.88±0.55
same,ASD1 binding of IgG1 from older adult males,"serum IgG1; older adult male serum, n=53, compared with ASD and TD males","did not differ from that of the ASD males, but was significantly lower than that of the TD males"
same,"differentiation in binding between the serum pools, secondary antibody specific to IgG1 subclass",serum IgG1; pooled serum of 10 TD males vs 10 ASD males,nearly four-fold
same,"differentiation in binding between the serum pools, total IgG",serum IgG,two-fold
